In patent US4496545A, “Nonapeptide for treating addictive drug withdrawal conditions” (priority 1981, dated 1985):
Where no end group is shown, it is not given here.

Assays:
morphine-dependent mouse = assay: Inhibition of the naloxone-triggered withdrawal leaps of the morphine-dependent mouse; type: in vivo; details: 30 mg/kg s.c. 30 minutes before naloxone; median leaps vs NaCl control
Excerpt: An opiate-dependent organism for example reacts the same irrespective of species on the sudden withdrawal of the opiate (e.g. morphine) with withdrawal symptoms, i.e. addictive drug withdrawal conditions. In the course of this occurrence central and peripheral symptoms appear, of which the most striking in the mouse is a series of violent leaps (the so-called "jumping"). The number of leaps per time interval is proportional to the intensity of the withdrawal effect and their enumeration enables the incident to be evaluated quantitatively.
In order to produce the dependence a compressed tablet, which contained 75 mg of morphine (base) and which progressively dissolved with continuous liberation of the morphine, was implanted under the dorsal skin of male mice (weight about 22 g). On the third day after the implantation the morphine antagonist naloxone in a dosage of 0.1 mg/kg was administered subcutaneously to the animals in order to trigger off the withdrawal leaps.
After the injection, the leaps of each individual animal were counted for 20 minutes. The group median value was calculated from the total leaps of 8 animals, which formed a group. […] The dosage median values and, respectively, control median values were calculated from all individual values per dosage and, respectively, the positive and negative controls.

rats [1] = details: rat, in vivo
Description: (§1) Toxicological studies were carried out on 12 male and 12 female rats as well as on 3 male and 3 female dogs per dosage. For this purpose DSIP was dissolved in physiological sodium chloride solution and administered intravenously daily for 4 weeks in the dosages of 0.6, 1.8 and 6 mg/kg. At an interval of 2 weeks during these studies the hematological, hematochemical and the urine status were determined, and the electrocardiogram was recorded and analyzed.
(§2) At the termination of the aforementioned studies all animals were painlessly killed and there followed the autopsy besides the removal of organ samples for histological investigations.

dogs [2] = details: dog, in vivo
Description: as §1, §2

[3] = tested on: alcoholic or methadone- or heroin-dependent patients; details: human, in vivo
Description: Of the 25 alcoholic patients 8 were on admission already in delirium tremens to a medium to severe degrees. After the first subjective and objective withdrawal signs manifested themselves the patients received up to 4 intravenous infusions of in each case 0.0214 mg/kg of DSIP daily. For this purpose, the substance was dissolved in physiological sodium chloride solution and infused in the course of 5 minutes.
The duration of treatment amounted to a maximum of 3 days.

rats [4] = assay: Toxicological study, daily intravenous administration for 4 weeks, rats; details: maximum dosage (6 mg/kg i.v. daily for 4 weeks)
Description: as §1, §2

dogs [5] = assay: Toxicological study, daily intravenous administration for 4 weeks, dogs; details: maximum dosage (6 mg/kg i.v. daily for 4 weeks)
Description: as §1, §2

Molecule | % of negative control (morphine-dependent mouse) [%] | Tolerability of the dosages (rats [1]) | Tolerability of the dosages (dogs [2]) | Tolerance of DSIP: poor [3] [patients] | Electrocardiogram (rats [4]) | Electrocardiogram (dogs [5])
CN1CC[C@]23c4c5ccc(O)c4O[C@H]2[C@@H](O)C=C[C@H]3[C@H]1C5 [Morphine] | 27 | – | – | – | – | –
WAGGDASGE [DSIP, Trp-Ala-Gly-Gly-Asp-Ala-Ser-Gly-Glu] | – | tolerated without any side effects | tolerated without any side effects | 2 | no changes in the electrocardiogram | no changes in the electrocardiogram
